# Experimental data: patent US20260053767A1, “Hepatoprotective Compositions And Methods” (Jemyll, Ltd., priority 2022, published 2026)
# “Also recorded” adds a separate entry of the source.
# Tests used:
# Wistar rats [1] = experiment: Liver histology (H&E, red oil ORO, Sirius red) in rats on high fat/high cholesterol diet with or without DDA; format: in vivo
# Description: Animal Studies. All in vivo studies used Wistar rats that were kept for 9 weeks on a high fat/high cholesterol diet. The animals were then separated into two groups, a control group that continued the high fat/high cholesterol diet with regular water, whereas the treatment group continued the high fat/high cholesterol diet with water containing DDA (dodecanedioic acid) in an amount of 1% of the caloric intake. After all animals were separated in the respective test groups, body weights were recorded, and a glucose challenge test administered. […] Such effect is particularly unexpected as the quantity of DDA in the food was well below any quantity that was reasonably expected.
# While not wishing to be bound by any specific theory or hypothesis, the inventors contemplate that the DDA at the low levels inhibits the trans-differentiation of hepatic stellate cells to myofibroblasts that produce extracellular matrix proteins (including collagen), likely by protecting them from damage due to reactive oxygen species (ROS).
# NAMPT = NAMPT enzyme levels in endothelial cells; format: cell-based; conditions: EOMA endothelial cells, 6 hours; p=0.018
# Description: To that end, the inventors used endothelial cells (EOMA cells) and liver cells (AML-12 cells) in vitro and quantified various markers in response to exposure of the cells to environmental challenge in the presence and absence of DDA at low concentrations. Unless indicated otherwise, the DDA concentration in the in vitro experiments was 5 mcg per microliter. More specifically, the inventors measured p-H2AX protein levels as a marker for DNA damage, PGC-1α protein levels as a marker for mitochondrial biogenesis, NAMPT enzyme levels as a marker for potential for NAD+ production, and total antioxidant capacity as a marker of cellular health. In addition, the inventors also measured global SIRT activity as a gauge of activity for all SIRT enzymes, and in particular SIRT1 enzyme levels as markers for autophagy and various beneficial processes associated with a caloric restricted diet, and SIRT3 levels as markers for mitochondrial function and longevity.
# In yet a further series of experiments, the inventors also sought to confirm whether or not DDDA would have a modulatory effect in endothelial cells using the same markers and experimental conditions as noted above.
# On the other hand, where endothelial cells were exposed to DDDA, there was a significant difference in NAMPT enzyme levels as is exemplarily depicted in FIG. 15.
# Wistar rats [2] = experiment: Study 1 (prevention): liver histology (H&E, Oil Red O, Sirius Red); format: in vivo; conditions: Study 1, 4 weeks, 1% (w/vol) in drinking water
# Experimental: Study design: All animal procedures were approved by the Catholic University of Rome Institutional Animal Care Committee. The design of the studies is summarized in FIG. 18, Panels A and B. • Study 1: Twenty adult Wistar rats, aged 8-10 weeks, were included in the study. The rats were housed in individual cages at 22° C. with 12-h light cycles and had ad libitum access to food and water. Rats were fed a high-fat high-cholesterol diet (44% Carbohydrate, 14% Protein, 42% fat+0.2% Cholesterol) (Mucedola, Milan, IT) for four weeks in the presence or absence of 1% Dodecanedioic acid, sodium salt (w/vol) dissolved in the water (FIG. 18, Panel A). Body weight and food/water intake were monitored weekly. • Study 2: Twenty adult Wistar rats, aged 8-10 weeks, were included in the study. The rats were housed in individual cages at 22° C. with 12-h light cycles and had ad libitum access to food and water. Rats were fed a high-fat high-cholesterol diet (44% Carbohydrate, 14% Protein, 42% fat+0.2% Cholesterol) (Mucedola, Milan, IT). After nine weeks of diet, rats were randomly assigned to one of the following groups: Four weeks of high-fat high-cholesterol diet or four weeks of high-fat high-cholesterol diet and 1% Dodecanedioic acid, sodium salt (w/v) dissolved in the water FIG. 18, Panel B). Body weight and food/water intake were monitored weekly.
# Histology: The day of the sacrifice fresh portions of liver were cut, embedded in cryo-embedding media (OCT) and snap frozen in liquid nitrogen. Biopsies were cut using a cryostat (5 μm) and slides stored a −20° C. until analyses.
# Hematoxylin and Eosin staining was performed to assess hepatic steatosis. Slides were fixed 10 minutes with 95% ethanol, stained with hematoxylin for 1 minute, washed with distilled water, stained with eosin for 30 seconds and cleared in two changes of pure ethanol and two changes of xylene.
# Oil Red O was performed to assess intracellular lipid accumulation. Slides were fixed overnight with 4% formalin, stained with Oil Red O solution for 1 hour. Counterstain was performed with Hematoxylin solution.
# Sirius Red was used to identify hepatic fibrosis. Slides were fixed 10 minutes with 4% formalin, stained in Direct red 80 for 1 hour, washed in acidified water and dehydrate in 3 changes of absolute ethanol. After brief clearing in xylene, the slides were mounted in a resinous medium. Images were taken with an optical microscope (Leica DM2000, Wetzlar, DE). […]
# Panels A and B. • Study 1: Twenty adult Wistar rats, aged 8-10 weeks, were included in the study. […] Body weight and food/water intake were monitored weekly. • Study 2: Twenty adult Wistar rats, aged 8-10 weeks, were included in the study. […] Body weight and food/water intake were monitored weekly. […]
# [3] = system: human primary hepatocytes; experiment: Nile red staining of lipid droplets; format: cell-based; conditions: C12 1% with palmitic acid 0.4 mM, vs palmitic acid alone, listed as C12
# Experimental: Nile Red: Cells were cultured for 24 hours in DMEM with 10% FBS. Prior stimulation, cells were incubated in serum free DMEM overnight. […] After the stimulation, cells were stained with Nile Red (100 ng/ml) for 45 minutes. Stained cells were used for immunofluorescence to quantify the deposition of lipid droplets. Nuclear staining was performed with DAPI and images of lipid droplets were taken using confocal microscope Nikon A1 RHD25 and NIS-Elements imaging software was used to analyze images.
# C12 decrease de novo lipogenesis and an increase in fatty acid oxidation in vitro and in vivo: To test the hypothesis that C12 could affect de novo lipogenesis and fatty acid beta-oxidation, human primary hepatocytes were stimulated with palmitic acids (0.4 mM) in the presence or absence of C12 1% (v/w). […] Similar results were also observed in our in vivo experiments. […] Data from in vivo study 1 and 2 were pooled together.
smiles,measurement,setting,value
"O=C(O)CCCCCCCCCCC(=O)O [DDDA, dodecanedioic acid]",liver tissue morphology under H&E stain,Wistar rats [1]; high fat/high cholesterol diet with DDA vs without,significantly closer to normal liver histology
same,"fatty deposits in liver tissue, red oil (ORO) stain",Wistar rats [1]; high fat/high cholesterol diet with low quantities of DDA,normal or near-normal microscopic appearance
same,"fibrosis (Sirius red, hepatic collagen): rats without DDA compared to rats with DDA","Wistar rats [1]; high fat/high cholesterol diet, DDA at low concentrations",significantly increased fibrosis as compared to those rats where the diet included DDA at low concentrations
same,"hepatoprotective effect (histopathology, overall)",Wistar rats [1]; low concentration of DDA in high fat/high cholesterol diet,substantial hepatoprotective effect
same,NAMPT enzyme levels,NAMPT,increased NAMPT enzyme levels
same,"diet-induced NASH (histology, prevention)",Wistar rats [2],prevents diet-induced NASH
same,fibrosis (Picro Sirius Red),Wistar rats [2],reduced
same,hepatic steatosis (Hematoxylin and Eosin),Wistar rats [2],reduced
same,neutral lipids deposition (Oil Red O),Wistar rats [2],reduced
same,deposition of lipid droplets (Nile red),[3],decreased deposition of lipid droplets; also recorded: reduces lipid droplets accumulation
